Results as given in PubChem BioAssay (NCI).
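The compound was tested at five concentrations on cells cultured in 96-well plates, with a 48-hour exposure period. At the TGI there is no net growth.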

Tests used:
Test in all cases: NCI anticancer screen, dose series, 48 h
CCRF-CEM leukemia = system: CCRF-CEM leukemia
NCI-H522 lung = system: NCI-H522 lung
UACC-62 melanoma = system: UACC-62 melanoma
MDA-N = system: MDA-N
MDA-MB-435 = system: MDA-MB-435
UACC-257 melanoma = system: UACC-257 melanoma
SNB-75 CNS = system: SNB-75 CNS
OVCAR-5 ovarian = system: OVCAR-5 ovarian
OVCAR-4 ovarian = system: OVCAR-4 ovarian
RPMI-8226 leukemia = system: RPMI-8226 leukemia
SF-295 CNS = system: SF-295 CNS
HCT-116 colon = system: HCT-116 colon
HOP-62 NSCLC = system: HOP-62 NSCLC
M14 melanoma = system: M14 melanoma
OVCAR-3 ovarian = system: OVCAR-3 ovarian
SNB-19 CNS = system: SNB-19 CNS
K-562 leukemia = system: K-562 leukemia
EKVX NSCLC = system: EKVX NSCLC
MALME-3M melanoma = system: MALME-3M melanoma
SK-MEL-28 melanoma = system: SK-MEL-28 melanoma
TK-10 renal = system: TK-10 renal
A549 NSCLC = system: A549 NSCLC
HS 578T breast = system: HS 578T breast
IGROV1 ovarian = system: IGROV1 ovarian
SW-620 colon = system: SW-620 colon
HL-60(TB) leukemia = system: HL-60(TB) leukemia
OVCAR-8 ovarian = system: OVCAR-8 ovarian
SR leukemia = system: SR leukemia
U251 CNS = system: U251 CNS
786-0 renal = system: 786-0 renal
BT-549 breast = system: BT-549 breast
HT29 colon = system: HT29 colon
MDA-MB-231 breast = system: MDA-MB-231 breast
PC-3 prostate = system: PC-3 prostate
ACHN renal = system: ACHN renal
MOLT-4 leukemia = system: MOLT-4 leukemia
SK-MEL-2 melanoma = system: SK-MEL-2 melanoma
SF-268 CNS = system: SF-268 CNS
KM12 colon = system: KM12 colon
T-47D breast = system: T-47D breast
NCI-H226 lung = system: NCI-H226 lung
SN12C renal = system: SN12C renal
HCT-15 colon = system: HCT-15 colon
MCF7 breast = system: MCF7 breast
UO-31 renal = system: UO-31 renal
CAKI-1 renal = system: CAKI-1 renal
DU-145 prostate = system: DU-145 prostate
HOP-92 NSCLC = system: HOP-92 NSCLC
NCI/ADR-RES ovarian = system: NCI/ADR-RES ovarian
SF-539 CNS = system: SF-539 CNS
NCI-H23 lung = system: NCI-H23 lung
SK-MEL-5 melanoma = system: SK-MEL-5 melanoma
SK-OV-3 ovarian = system: SK-OV-3 ovarian
NCI-H460 lung = system: NCI-H460 lung
RXF 393 renal = system: RXF 393 renal
HCC-2998 colon = system: HCC-2998 colon
COLO 205 colon = system: COLO 205 colon
LOX IMVI melanoma = system: LOX IMVI melanoma
A498 renal = system: A498 renal

`O=C(NC(=S)Nc1ccc2c(c1)Sc1ccccc1O2)c1ccccc1` was tested. Which TGI (CCRF-CEM leukemia) did it give?
The TGI was 95.9 µM.

What about the TGI (NCI-H522 lung) of the same compound?
Its TGI is > 100 µM.

And the TGI (UACC-62 melanoma)?
The TGI was > 100000 nM.

And the TGI (MDA-N)?
Its TGI is > 100 µM.

And the TGI (MDA-MB-435)?
The TGI was > 100 µM.

What about the TGI (UACC-257 melanoma) of the same compound?
The TGI was > 100000 nM.

And the TGI (SNB-75 CNS)?
Its TGI is 40.3 µM.

And the TGI (OVCAR-5 ovarian)?
Its TGI is > 100 µM.

And the TGI (OVCAR-4 ovarian)?
The TGI was 92.3 µM.

What about the TGI (RPMI-8226 leukemia) of the same compound?
Its TGI is > 100 µM.

What about the TGI (SF-295 CNS) of the same compound?
The TGI was 79.4 µM.

What about the TGI (HCT-116 colon) of the same compound?
The TGI was > 100 µM.

What about the TGI (HOP-62 NSCLC) of the same compound?
The TGI was > 100000 nM.

And the TGI (M14 melanoma)?
Its TGI is > 100 µM.

And the TGI (OVCAR-3 ovarian)?
The TGI was > 100000 nM.

What about the TGI (SNB-19 CNS) of the same compound?
Its TGI is > 100000 nM.

And the TGI (K-562 leukemia)?
The TGI was > 100 µM.

What about the TGI (EKVX NSCLC) of the same compound?
The TGI was > 100000 nM.

What about the TGI (MALME-3M melanoma) of the same compound?
The TGI was 93.2 µM.

And the TGI (SK-MEL-28 melanoma)?
Its TGI is > 100 µM.

What about the TGI (TK-10 renal) of the same compound?
Its TGI is 54.3 µM.

And the TGI (A549 NSCLC)?
The TGI was > 100 µM.

And the TGI (HS 578T breast)?
The TGI was > 100 µM.

What about the TGI (IGROV1 ovarian) of the same compound?
Its TGI is > 100 µM.

And the TGI (SW-620 colon)?
The TGI was > 100 µM.

What about the TGI (HL-60(TB) leukemia) of the same compound?
Its TGI is > 100 µM.

And the TGI (OVCAR-8 ovarian)?
Its TGI is > 100 µM.

What about the TGI (SR leukemia) of the same compound?
Its TGI is 16.1 µM.

And the TGI (U251 CNS)?
The TGI was 49.6 µM.

And the TGI (786-0 renal)?
Its TGI is 48.1 µM.

What about the TGI (BT-549 breast) of the same compound?
The TGI was > 100000 nM.

What about the TGI (HT29 colon) of the same compound?
Its TGI is > 100 µM.

What about the TGI (MDA-MB-231 breast) of the same compound?
The TGI was 57.8 µM.

What about the TGI (PC-3 prostate) of the same compound?
Its TGI is 28.5 µM.

What about the TGI (ACHN renal) of the same compound?
Its TGI is > 100000 nM.

And the TGI (MOLT-4 leukemia)?
Its TGI is > 100 µM.

What about the TGI (SK-MEL-2 melanoma) of the same compound?
Its TGI is 48.8 µM.

And the TGI (SF-268 CNS)?
The TGI was > 100 µM.

What about the TGI (KM12 colon) of the same compound?
Its TGI is > 100000 nM.

What about the TGI (T-47D breast) of the same compound?
The TGI was > 100 µM.

What about the TGI (NCI-H226 lung) of the same compound?
Its TGI is > 100 µM.

And the TGI (SN12C renal)?
Its TGI is > 100 µM.

And the TGI (HCT-15 colon)?
Its TGI is > 100 µM.

And the TGI (MCF7 breast)?
Its TGI is > 100000 nM.

What about the TGI (UO-31 renal) of the same compound?
The TGI was > 100000 nM.

And the TGI (CAKI-1 renal)?
Its TGI is > 100 µM.

What about the TGI (DU-145 prostate) of the same compound?
The TGI was > 100 µM.

And the TGI (HOP-92 NSCLC)?
Its TGI is 69 µM.

What about the TGI (NCI/ADR-RES ovarian) of the same compound?
Its TGI is > 100 µM.

What about the TGI (SF-539 CNS) of the same compound?
Its TGI is 64.6 µM.

And the TGI (NCI-H23 lung)?
The TGI was > 100000 nM.

What about the TGI (SK-MEL-5 melanoma) of the same compound?
The TGI was > 100 µM.

And the TGI (SK-OV-3 ovarian)?
Its TGI is > 100 µM.

And the TGI (NCI-H460 lung)?
Its TGI is > 100000 nM.

What about the TGI (RXF 393 renal) of the same compound?
Its TGI is 64.5 µM.

What about the TGI (HCC-2998 colon) of the same compound?
Its TGI is 49.2 µM.

And the TGI (COLO 205 colon)?
Its TGI is > 100 µM.

What about the TGI (LOX IMVI melanoma) of the same compound?
Its TGI is > 100000 nM.

`CCCCCCCCCCCC[C@@H](O)[C@H]1CC[C@H]([C@H]2CC[C@H]([C@H](O)CC[C@H](O)CCCCCCCC3=C[C@H](C)OC3=O)O2)O1` was tested. Which TGI (CCRF-CEM leukemia) did it give?
Its TGI is 4.74 µM.

And the TGI (UACC-62 melanoma)?
The TGI was 2580 nM.

And the TGI (MDA-N)?
Its TGI is 4.49 µM.

And the TGI (MDA-MB-435)?
Its TGI is 4.05 µM.

And the TGI (UACC-257 melanoma)?
Its TGI is 2350 nM.

What about the TGI (SNB-75 CNS) of the same compound?
Its TGI is 3.77 µM.

What about the TGI (OVCAR-5 ovarian) of the same compound?
Its TGI is 3.25 µM.

What about the TGI (RPMI-8226 leukemia) of the same compound?
The TGI was 9.49 µM.

What about the TGI (SF-295 CNS) of the same compound?
Its TGI is 3.01 µM.

What about the TGI (HCT-116 colon) of the same compound?
Its TGI is 4.42 µM.

And the TGI (HOP-62 NSCLC)?
Its TGI is 2960 nM.

And the TGI (M14 melanoma)?
Its TGI is 3.11 µM.

And the TGI (OVCAR-3 ovarian)?
Its TGI is 2950 nM.

And the TGI (SNB-19 CNS)?
The TGI was 2620 nM.

What about the TGI (K-562 leukemia) of the same compound?
Its TGI is > 10 µM.

What about the TGI (EKVX NSCLC) of the same compound?
The TGI was 2820 nM.

What about the TGI (SK-MEL-28 melanoma) of the same compound?
Its TGI is 3.6 µM.

What about the TGI (TK-10 renal) of the same compound?
The TGI was 2.65 µM.

And the TGI (A549 NSCLC)?
The TGI was 4.42 µM.

And the TGI (HS 578T breast)?
The TGI was 5.48 µM.

What about the TGI (IGROV1 ovarian) of the same compound?
Its TGI is 3.2 µM.

What about the TGI (SW-620 colon) of the same compound?
The TGI was 5.82 µM.

And the TGI (HL-60(TB) leukemia)?
The TGI was 4.17 µM.

And the TGI (OVCAR-8 ovarian)?
The TGI was 4 µM.

What about the TGI (SR leukemia) of the same compound?
The TGI was > 10 µM.

What about the TGI (U251 CNS) of the same compound?
Its TGI is 5.32 µM.

And the TGI (786-0 renal)?
The TGI was 5.66 µM.

What about the TGI (BT-549 breast) of the same compound?
The TGI was 1020 nM.

What about the TGI (HT29 colon) of the same compound?
Its TGI is 3.25 µM.

What about the TGI (MDA-MB-231 breast) of the same compound?
The TGI was 6.36 µM.

What about the TGI (PC-3 prostate) of the same compound?
The TGI was 2.9 µM.

And the TGI (ACHN renal)?
Its TGI is 2450 nM.

What about the TGI (MOLT-4 leukemia) of the same compound?
Its TGI is > 10 µM.

And the TGI (SK-MEL-2 melanoma)?
The TGI was 2.93 µM.

What about the TGI (SF-268 CNS) of the same compound?
Its TGI is 3.32 µM.

What about the TGI (KM12 colon) of the same compound?
The TGI was 2900 nM.

What about the TGI (T-47D breast) of the same compound?
The TGI was > 10 µM.

And the TGI (NCI-H226 lung)?
Its TGI is 3.48 µM.

And the TGI (SN12C renal)?
The TGI was 8.13 µM.

What about the TGI (HCT-15 colon) of the same compound?
Its TGI is 4.33 µM.

What about the TGI (MCF7 breast) of the same compound?
Its TGI is 2720 nM.

What about the TGI (UO-31 renal) of the same compound?
The TGI was 2160 nM.

And the TGI (CAKI-1 renal)?
Its TGI is 6.81 µM.

What about the TGI (DU-145 prostate) of the same compound?
The TGI was > 10 µM.

What about the TGI (HOP-92 NSCLC) of the same compound?
The TGI was 4.23 µM.

What about the TGI (NCI/ADR-RES ovarian) of the same compound?
Its TGI is 3.8 µM.

And the TGI (SF-539 CNS)?
The TGI was 3.12 µM.

What about the TGI (NCI-H23 lung) of the same compound?
Its TGI is 2310 nM.

What about the TGI (SK-MEL-5 melanoma) of the same compound?
Its TGI is 4.48 µM.

And the TGI (A498 renal)?
Its TGI is 4.94 µM.

What about the TGI (NCI-H460 lung) of the same compound?
Its TGI is 2820 nM.

And the TGI (RXF 393 renal)?
The TGI was 5.9 µM.

And the TGI (COLO 205 colon)?
The TGI was 3.94 µM.

What about the TGI (LOX IMVI melanoma) of the same compound?
The TGI was 2760 nM.
